The record followed here is US20150182527A1, “COMPOSITIONS, DEVICES AND METHODS OF TREATING INFECTIONS” (COOK MEDICAL TECHNOLOGIES LLC, priority 2014, published 2015).

The test system of one assay is C. albicans #ATCC 10231. Nature of the assay: Checkerboard microdilution MIC of azole and quaternary ammonium salt combinations. The class given is cell-based, Candida albicans. Particulars: for MIC: Candida albicans. The text has this:
(§1) Interactions between the selected azoles and quaternary ammonium salts (quats) were characterized via changes in minimum inhibitory concentration (MIC) using a checkerboard method in 96-well plates. This method is adapted from the microdilution method outlined in CLSI, M27-A3 (2008), —Reference Method for Broth Dilution Antifungal Susceptibility Testing of Yeasts; Approved Standard—3rd Edition.
(§2) Briefly, X and Y axes were established on the plates to serve as MIC controls for the compounds acting individually. Two-compound interactions were evaluated at the X-Y axis intersection of the two single-drug concentration axes.
(§3) Frozen concentrated stock compound solutions were used as the starting point in making the dilution series. […] One-quarter of the final well volume of the 4× stock was added to the appropriate wells. For wells with a second compound, one-quarter of the final well volume of the second compound was also added. An equivalent volume of culture media was added to wells in which only a single compound was tested.
(§4) Final well volume was either 100 μl or 200 μl depending on assay run. After addition of the 4× stocks and/or media, one-half of the final well volume of 5×10^3 CFU/mL yeast inoculum was added to each test well. Yeast inoculums were made from a 0.5 McFarland-matched culture that had been growing for 4-5 hours at 37° C. in trypticase soy broth (TSB). Each assay plate also included inoculum-only growth control wells (half the final well volume of inoculum plus the other half culture media) and culture media-only control wells. The inoculated plates were cultured aerobically in a humidified 36° C. room air incubator for 18 hours or 24 hours (±1 hour), depending on assay run, at which time growth was scored. The scored plates were then returned to the incubator for an additional 24 hours (±1 hour) of culturing and scored a second time (at 42 or 48 hours total culturing time).
(§5) Unless stated otherwise, yeast growth was scored using the subjective five tier numerical score (NS) scale established in CLSI M27-A3: 4=no reduction in growth relative to control, 3=slight reduction in growth (-25% reduction), 2=prominent decrease in growth (˜50% reduction), 1=slightly hazy growth (-75% reduction), 0 =no visible growth. Growth is scored relative to the on-plate inoculum control.
(§6) The checkerboard plate data was utilized to derive a fractional inhibitory concentration index (FICI) value that scores the interaction between compounds on a three category interaction scale: FICI <0.5 indicates synergy, FICI 0.5-4 indicates no interaction, and FICI >4 indicates antagonism. The FICI equation is: […]

The test system of the next assay is C. glabrata # ATCC 2950. The assay is described as above. The class given is cell-based, Candida glabrata. Conditions: for MIC: Nakaseomyces glabratus, ATCC2950, fluconazole alone or its concentration in the combination.
Text: as §1, §2, §3, §4, §5, §6

[1] abbreviates: TSB media, 48 hours post inoculation, benzalkonium-Cl alone or its concentration in the combination.

With benzalkonium chloride [Benzalkonium-Cl], the entries for the “Benzalkonium-Cl MIC” value in the assay on C. albicans #ATCC 10231 (setting [1]) and with C. glabrata # ATCC 2950 (setting [1]) were 3.8 µg/mL and 1.9 µg/mL, respectively.
Regarding `OC(Cn1cncn1)(Cn1cncn1)c1ccc(F)cc1F` [Fluconazole, fluconazole], the MIC was found to be 128 µg/mL in the assay on C. albicans #ATCC 10231 (ATCC10231, 48 h, RPMI media, 48 hours post inoculation, fluconazole alone or its concentration in the combination); 256 µg/mL in the assay with C. albicans #ATCC 10231 (ATCC10231, TSB media, 42 hours post inoculation, NS≦2 is efficacious, fluconazole alone or its concentration in the combination); 64 µg/mL in the assay with C. albicans #ATCC 10231 (ATCC10231, TSB media, 48 hours post inoculation, fluconazole alone or its concentration in the combination with benzalkonium-Cl); 16 µg/mL in the assay with C. glabrata # ATCC 2950 (RPMI media, 48 hours post inoculation); 16 µg/mL with C. glabrata # ATCC 2950 (TSB media, 42 hours post inoculation, NS≦2 is efficacious). In addition, the “Fluconazole MIC” value with C. glabrata # ATCC 2950 (TSB media, 48 hours post inoculation, fluconazole alone or its concentration in the combination with benzalkonium-Cl) stood at 16 µg/mL.
